Results taken from US4361570A (Istituto Luso Farmaco D'Italia S.p.A., priority 1980, dated 1982).
Where two headings read alike, the source gives them in different places.

Key:
[1] = Rabbit, i.v.
lacticacidaemia [2] = conditions: for lacticacidaemia, basal / lacticacidaemia, after 15 minutes / lacticacidaemia, after 10 minutes / lacticacidaemia, immediately after stress: 2300 mg in 250 ml venous infusion
Procedure: All the patients are being treated with insulin and are in a metabolic compensation.
The trials are performed on double-blind conditions. Each patient is subjected to an isometric stress test at 50% of its maximum ability for one minute.
The samples for measuring the lacticacidaemia are taken from the same arm performing the muscular stress.

[3] = Mouse
[4] = Rat
[5] = pregnant rabbit
lacticacidaemia [6] = conditions: for lactate level: control animals 5.1±0.59 mM/l
Procedure: The resulting lactate levels are 2.9±0.8 mM/l with modality "A" and 1.37±0.01 mM/l with modality "B", respectively.
The control animals show a lacticacidaemia level of 5.1±0.59 mM/l.

[7] = system: homogenized liver and brain; conditions: in vitro, Warburg apparatus, French Pat. No. 6453 M; cited from earlier work
[8] = rats
[9] = 920 mg/kg/i.m., dog
[10] = system: maximal aerobic capacity; blood lactate; experiment: Maximal aerobic capacity and blood lactate at work loads in trained non-athletic individuals
[11] = 400 mg/kg/os, rats, six months
hyperlacticacidaemia = experiment: Lacticacidaemia in cyrrhotic patients having hyperlacticacidaemia (double blind); conditions: venous 2300 mg in 250 ml, 25 cyrrhotic patients
[12] = pregnant rat
lacticacidaemia [13] = conditions: known effect of metformin; cited from earlier work

With `Cc1ncc(CO)c(CO)c1O.O=C(O)CCC(=O)C(=O)O` [PAK] the LD50 [1] was 1050 mg/kg, the duration of effect (lacticacidaemia [2]; analysis of the variance) was “protracted in time” and the “reduction of lacticacidaemia after stress” value (lacticacidaemia [2]; analysis of the variance) was “faster with PAK”. The “increase of lacticacidaemia by stress with respect to physiological solution” value (lacticacidaemia [2]; analysis of the variance, p<0.01) was “lower with respect to physiological solution”, the “lacticacidaemia, basal” value (lacticacidaemia [2]; sequence (a) physiological solution/PAK, physiological solution 0.88 ± 0.19) was 0.94 ± 0.20 and the “lacticacidaemia, after 15 minutes” value (lacticacidaemia [2]; sequence (a) physiological solution/PAK, physiological solution 1.54 ± 0.30) was 1.18 ± 0.30. For the same compound, the “lacticacidaemia, after 10 minutes” value (lacticacidaemia [2]; sequence (a) physiological solution/PAK, physiological solution 1.73 ± 0.35) was 1.60 ± 0.30, the “lacticacidaemia, immediately after stress” value (lacticacidaemia [2]; sequence (a) physiological solution/PAK, physiological solution 3.12 ± 0.46) was 2.62 ± 0.38 and the “lacticacidaemia, basal” value (lacticacidaemia [2]; sequence (b) PAK/physiological solution, physiological solution 0.93 ± 0.19) was 0.88 ± 0.16. For the same compound, the “lacticacidaemia, after 15 minutes” value (lacticacidaemia [2]; sequence (b) PAK/physiological solution, physiological solution 1.25 ± 0.40) was 1.11 ± 0.29, the “lacticacidaemia, after 10 minutes” value (lacticacidaemia [2]; sequence (b) PAK/physiological solution, physiological solution 1.43 ± 0.44) was 1.30 ± 0.33 and the “lacticacidaemia, immediately after stress” value (lacticacidaemia [2]; sequence (b) PAK/physiological solution, physiological solution 2.08 ± 0.49) was 2.03 ± 0.47. The “decrease in the formation of blood lactic acid” value (blood lactic acid; 2 g/100 kg of weight/day for 15 days, 5 trotters, trot) was “significant decrease”, the “basal lacticacidaemia after treatment” value (blood lactic acid; 2 g/100 kg/day for 15 days, before treatment 6.04 mg/100 ml) was 3.30 mg/100 ml and the “lacticacidaemia immediately after the stress, after treatment” value (blood lactic acid; 2 g/100 kg/day for 15 days, before treatment 29.41 mg/100 ml) was 15.94 mg/100 ml. For the same compound, the LD50 ([3]; i.m.) was 2472 mg/kg, the LD50 ([3]; i.p.) was 1590 mg/kg and the LD50 ([3]; i.v.) was 496 mg/kg. It also gave an LD50 ([3]; os) of 5600 mg/kg, an LD50 ([4]; i.m.) of 2329 mg/kg and an LD50 ([4]; i.p.) of 1704 mg/kg. The LD50 ([4]; i.v.) was 588 mg/kg, the LD50 ([4]; os) was 4800 mg/kg and the Activity on gestation ([5]; 46 mg/kg/i.m.) was “does not cause any noxious effect in the pregnant female, on the gestation and on the embryo-fetal development”. The Activity on gestation ([5]; oral 1300 mg/kg) was “does not cause any noxious effect in the pregnant female, on the gestation and on the embryo-fetal development”, the decrease of lacticacidaemia (lacticacidaemia [6]; modality "A" and modality "B", with metformin) was “notable decrease of lacticacidaemia” and the lactate level (lacticacidaemia [6]; modality "A": PAK 25 mg/h venous infusion contemporaneously with metformin (300 mg/i.d.)) was 2.9±0.8 mM/l. For the same compound, the lactate level (lacticacidaemia [6]; modality "B": PAK 25 mg/h venous infusion three hours after metformin (300 mg/i.d.)) was 1.37±0.01 mM/l, the “oxygen consumption vs α-ketoglutaric acid or pyridoxine alone” value [7] was “markedly higher” and the Systemic tolerability ([8]; 46 mg/kg/i.v.) was “well tolerated”. The Systemic tolerability ([8]; 460 mg/kg/i.m.) was “well tolerated”, the Systemic tolerability [9] was “well tolerated” and the “effect on half time (t 1/2) of La disappearance from blood during recovery” value ([10]; 30 mg/kg) was “unaffected”. For the same compound, the “increase of maximal aerobic capacity (VO2 max)” value ([10]; 30 mg/kg of body weight, p<0.005) was 6%, the “kinetics of the VO2 on-and-off responses” value ([10]; 30 mg/kg, onset and offset of a rectangular work load) was “not affected” and the “ΔLab, peak blood lactate concentration vs control group” value ([10]; 30 mg/kg, supermaximal running work load lasting 60 seconds, p<0.05) was -1.1 mmol·1^-1. For the same compound, the “ΔLab, peak blood lactate concentration vs control group” value ([10]; 30 mg/kg, supermaximal running work load lasting 132±4 seconds, p<0.01) was under 2.7 mmol·1^-1, the Chronic toxicity [11] was “does not cause any collateral nor toxic effect in the various organs” and the “further increase of hyperlacticacidaemia” value (hyperlacticacidaemia) was “prevented its further increase”. The “reduction of hyperlacticacidaemia vs basal values and controls” value (hyperlacticacidaemia; p<0.01) was “statistically significant (p<0.01) reduction”, the Activity on gestation ([12]; 46 mg/kg/i.m.) was “does not cause any noxious effect in the pregnant female, on the gestation and on the embryo-fetal development” and the Activity on gestation ([12]; oral 1300 mg/kg) was “does not cause any noxious effect in the pregnant female, on the gestation and on the embryo-fetal development”.
In the case of `CN(C)C(=N)N=C(N)N` [metformin], the lacticacidosis in rat (lacticacidaemia [13]) is given as “causes lacticacidosis”.
